# Legend:
# Format in all cases: in vivo
# rice crop = test: Process Example D: yield of a rice crop with control of the insects which ravage it; conditions: versus plot without treatment
# Description: This process example according to the invention gives an illustration of the improvement in the yield of a rice crop obtained concomitantly with the control of the insects which ravage this rice crop.
# In this treatment Process Example according to the invention, the yield of the crop was evaluated, along with the improvement in this yield obtained by carrying out the said process according to the invention simultaneously using fipronil as compound (A) and cypermethrin as compound (B).
# (§1) The operating and measuring conditions are reproduced and adapted from Process Example B.
# The application rates and the results are collated in Table 4.
# Nilaparvata lugens [1] = test: Process Example C: insecticidal treatment against Nilaparvata lugens
# Excerpt: (§2) The operating conditions were reproduced and adapted from those of Process Example A.
# (§3) The active material(s) was(were) applied to the plots 25 days after planting out.
# (§4) The rates of active materials applied and the results obtained 14 days after application are collated in Table 2.
# This process example gives an illustration of a process according to the invention which is useful for insecticidal treatment against Nilaparvata lugens. The operating and measuring conditions are reproduced and adapted from Process Example B.
# The application rates and the results are collated in Table 3.
# Nilaparvata lugens [2] = test: Process Example F: variation in number of Nilaparvata lugens after treatment
# Excerpt: (§5) This process example gives an illustration of a process according to the invention which is useful for insecticidal treatment against Nilaparvata lugens.
# as §1
# The active materials used, their application rates and the results obtained are collated in Table 6.
# Nephotettix apicalis [3] = test: Process Example G: variation in number of Nephotettix apicalis after treatment
# Excerpt: This process example gives an illustration of a process according to the invention which is useful for insecticidal treatment against Nephotettix apicalis. The operating and measuring conditions are reproduced and adapted from Process Example B.
# The active materials used, their application rates and the results obtained are collated in Table 7.
# Nilaparvata lugens [4] = test: Process Example E: variation in number of Nilaparvata lugens after treatment
# Excerpt: as §5, §1
# The active materials used, their application rates and the results obtained are collated in Table 5.
# Nephotettix apicalis [5] = test: Process Example B: insecticidal treatment of a rice crop against leafhoppers; conditions: applied 25 days after planting out, 14 days after application
# Description: This process example gives an illustration of a process according to the invention which is useful for insecticidal treatment against leafhoppers and in particular against Nephotettix apicalis.
# This process according to the invention was carried out for the treatment of a rice crop.
# as §2
# The active materials used were fipronil and deltamethrin in a formulation in the form of granules according to Composition Example A.
# as §3, §4
# Tryporyza incertulas [6] = test: Process Example A: treatment of rice plots against yellow rice stem borer, count of dead plant cores; conditions: applied 7 days after planting out
# Description: The treatment process carried out was a treatment process against yellow rice stem borer or Tryporyza incertulas during the infestation of a rice crop. For the comparison of the process according to the invention with known insecticidal treatment processes, four plots were prepared in a similar manner.
# The first is left without treatment, the second is treated with fipronil as active material, the third with deltamethrin and the fourth with fipronil and deltamethrin in accordance with the process according to the invention.
# After sowing and then growing, the rice seedlings are transplanted at the three- to four-leaf stage.
# The various active materials were then applied 7 days after planting out.
# The formulation used in this process according to the invention is identical to that of Composition Example A.
# The application rates and the results obtained are collated in Table 1.
# (§6) The measurement was carried out by counting the number of rice plant cores that were dead due to attack by the damaging insects treated, i.e. Tryporyza incertulas; thus, the smallest number is obtained after carrying out the process according to the invention, while the untreated plots or plots treated in a known manner give substantially larger numbers.
# Scotinophara lurida = test: Process Example K: treatment of a rice crop against Scotinophara lurida; conditions: fipronil 25 g/ha
# Excerpt: The treatment process used was a process of treatment against Scotinophara lurida during the infestation of a rice crop.
# as §1
# The active materials used, their application rates and the results obtained are collated in Table 11.
# Tryporyza incertulas [7] = test: Process Example J: treatment of a rice crop against yellow rice stem borer, variation in dead plant cores; conditions: fipronil 25 g/ha
# Description: The treatment process used was a process of treatment against yellow rice stem borer or Tryporyza incertulas during the infestation of a rice crop.
# as §1
# The active materials used, their application rates and the results obtained are collated in Table 10.
# as §6, with “greatest degree of reduction” for “smallest number”, “whereas” for “while”, “more mediocre degrees.” for “larger numbers.”
# Nilaparvata lugens [8] = test: Process Example I: variation in number of Nilaparvata lugens after treatment; conditions: fipronil 25 g/ha
# Excerpt: as §5, §1
# The active materials used, their application rates and the results obtained are collated in Table 9.
# Nilaparvata lugens [9] = test: Process Example H: variation in number of Nilaparvata lugens after treatment; conditions: fipronil 25 g/ha
# Excerpt: as §5, §1
# The active materials used, their application rates and the results obtained are collated in Table 8.
compound,measurement,setting,value
"CC1(C)C(C=C(Cl)Cl)C1C(=O)OC(C#N)c1cccc(Oc2ccccc2)c1 [cypermethrin, (R,S)-α-cyano-3-phenoxybenzyl (1RS,3RS;1RS,3SR)-3-(2,2-dichlorovinyl)-2,2-dimethylcyclopropanecarboxylate]",Improvement in the yield of the plot (%),rice crop; cypermethrin 12.5 g/ha,78%
same,Insecticidal efficacy,Nilaparvata lugens [1]; cypermethrin 12.5 g/ha,21%
same,Degree of variation in the number of damaging insects 3 days after application,Nilaparvata lugens [2]; cypermethrin 12.5 g/ha,−27%
same,Degree of variation in the number of damaging insects 7 days after application,Nilaparvata lugens [2]; cypermethrin 12.5 g/ha,+13%
"CC1(C)[C@H](C(=O)O[C@H](C#N)c2cccc(Oc3ccccc3)c2)[C@@H]1C=C(Br)Br [deltamethrin, (S)-α-cyano-3-phenoxybenzyl (1R,3R)-3-(2,2-dibromovinyl)-2,2-dimethylcyclopropanecarboxylate]",Degree of variation in the number of damaging insects 1 day after application,Nephotettix apicalis [3]; deltamethrin 6 g/ha,−13%
same,Degree of variation in the number of damaging insects 3 days after application,Nephotettix apicalis [3]; deltamethrin 6 g/ha,+25%
same,Degree of variation in the number of damaging insects 7 days after application,Nephotettix apicalis [3]; deltamethrin 6 g/ha,+75%
same,Degree of variation in the number of damaging insects 3 days after application,Nilaparvata lugens [4]; deltamethrin 6 g/ha,+27%
same,Degree of variation in the number of damaging insects 7 days after application,Nilaparvata lugens [4]; deltamethrin 6 g/ha,0%
same,Insecticidal efficacy,Nephotettix apicalis [5]; deltamethrin 6 g/ha,6%
same,Proportion of dead plant cores found,Tryporyza incertulas [6]; deltamethrin 6 g/ha,66%
"N#Cc1nn(-c2c(Cl)cc(C(F)(F)F)cc2Cl)c(N)c1[S+]([O-])C(F)(F)F (stereo not shown) [fipronil, 5-amino-3-cyano-1-(2,6-dichloro-4-trifluoromethylphenyl)-4-trifluoromethylsulphinylpyrazole]",Degree of variation in the number of damaging insects 1 day after application,Nephotettix apicalis [3]; fipronil 25 g/ha,+50%
same,Degree of variation in the number of damaging insects 3 days after application,Nephotettix apicalis [3]; fipronil 25 g/ha,+83%
same,Degree of variation in the number of damaging insects 7 days after application,Nephotettix apicalis [3]; fipronil 25 g/ha,+183%
same,Degree of variation in the number of damaging insects 1 day after treatment,Scotinophara lurida; 1 day,−43%
same,Degree of variation in the number of damaging insects 3 days after treatment,Scotinophara lurida; 3 days,−67%
same,Degree of variation in the number of damaging insects 14 days after treatment,Scotinophara lurida; 14 days,−45%
same,Improvement in the yield of the plot (%),rice crop; fipronil 10 g/ha,188%
same,Insecticidal efficacy,Nilaparvata lugens [1]; fipronil 10 g/ha,78%
same,Degree of variation in the number of damaging insects 3 days after application,Nilaparvata lugens [4]; fipronil 25 g/ha,+33%
same,Degree of variation in the number of damaging insects 7 days after application,Nilaparvata lugens [4]; fipronil 25 g/ha,+11%
same,Degree of variation in the number of dead plant cores,Tryporyza incertulas [7],−35%
same,Degree of variation in the number of damaging insects 7 days after application,Nilaparvata lugens [8],+19%
same,Insecticidal efficacy,Nephotettix apicalis [5]; fipronil 25 g/ha,16%
same,Proportion of dead plant cores found,Tryporyza incertulas [6]; fipronil 10 g/ha,56%
same,Degree of variation in the number of damaging insects 1 day after application,Nilaparvata lugens [9]; 1 day,−15%
same,Degree of variation in the number of damaging insects 3 days after application,Nilaparvata lugens [9]; 3 days,−8%
same,Degree of variation in the number of damaging insects 7 days after application,Nilaparvata lugens [9]; 7 days,−16%
same,Degree of variation in the number of damaging insects 14 days after application,Nilaparvata lugens [9]; 14 days,+40%
same,Degree of variation in the number of damaging insects 3 days after application,Nilaparvata lugens [2]; fipronil 25 g/ha,+33%
same,Degree of variation in the number of damaging insects 7 days after application,Nilaparvata lugens [2]; fipronil 25 g/ha,+11%

# Reference: patent US6825227B2, “Method for fighting against arthropods destructive of crops and compositions therefor” (priority 2000, dated 2004)
